Measured values taken from publication PMC8693235, “Biocatalytic kinetic resolution of D,L-pantolactone by using a novel recombinant D-lactonase” (RSC Advances, 2020).

Biological target: T1, TSDL (D-lactonase) (Thermothielavioides terrestris, UniProt G2R1T8)
T1 construct: gene THITE_2046186; 421 aa, about 45 kDa on SDS-PAGE; pET-28a(+) NcoI/XhoI, E. coli BL21(DE3), intracellular; used as whole cells
T1 sequence (G2R1T8 1-421): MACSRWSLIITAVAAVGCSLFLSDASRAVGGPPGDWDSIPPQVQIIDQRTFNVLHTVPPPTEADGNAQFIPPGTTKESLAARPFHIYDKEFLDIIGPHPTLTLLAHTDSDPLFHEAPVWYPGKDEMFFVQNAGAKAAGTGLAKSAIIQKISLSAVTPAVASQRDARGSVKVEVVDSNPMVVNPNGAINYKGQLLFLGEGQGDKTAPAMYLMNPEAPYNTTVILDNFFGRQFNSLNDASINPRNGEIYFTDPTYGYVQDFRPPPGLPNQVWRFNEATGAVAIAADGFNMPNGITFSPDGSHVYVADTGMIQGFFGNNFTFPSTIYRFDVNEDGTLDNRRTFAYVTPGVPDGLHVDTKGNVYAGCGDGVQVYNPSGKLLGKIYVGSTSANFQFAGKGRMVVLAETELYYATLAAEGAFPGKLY
Experiment: whole-cell hydrolysis of D,L-pantolactone, HPLC and chiral HPLC
Type: cell-based
Conditions: racemic D,L-pantolactone; recombinant E. coli (TSDL) whole cells; pH 7.0, 30 °C; 5% NH3·H2O for pH control

## CC1(C)COC(=O)[C@@H]1O [D-PL, D-pantolactone]
  whole-cell hydrolysis of D,L-pantolactone, HPLC and chiral HPLC: The recombinant TSDL exhibited high hydrolysis activity and enantioselectivity toward D-PL
